Results from the supplement of paper PMC10307832.

Experiments:
Test in all cases: relative viability (nuclei count vs DMSO), 5 days (fraction); higher = more cells survive
[1] = compound: C=CCNC1=C2C[C@@H](C)C[C@H](OC)[C@H](O)[C@@H](C)/C=C(\C)[C@H](OC(N)=O)[C@@H](OC)/C=C\C=C(/C)C(=O)NC(=CC1=O)C2=O [17-AAG] + COc1cccc2cc(-c3nc([C@H]4CC[C@H](C(=O)O)CC4)n4ncnc(N)c34)[nH]c12 [OSI-027] (partner 0.5 µM)
Summary of the method: (§1)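 A single step with final 0.05% Triton X-100, 1% formaldehyde and 1 ug/ml Hoechst fixed the cells and stained nuclei 5 days after treatment. Lung cancer cell lines in 1536-well plates had been treated by pin tool the day after seeding with one drug alone or a fixed anchor-drug dose plus five library-drug doses (not always all listed) in √10 steps, and nuclei were counted on 4× images. Relative viability is the ratio of nuclei in treated wells to nuclei in vehicle wells, taken as the median of duplicate plates.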

[2] = compound: C=CCNC1=C2C[C@@H](C)C[C@H](OC)[C@H](O)[C@@H](C)/C=C(\C)[C@H](OC(N)=O)[C@@H](OC)/C=C\C=C(/C)C(=O)NC(=CC1=O)C2=O [17-AAG] + C[C@]1(O)C[C@@H](c2nc(-c3ccc4ccc(-c5ccccc5)nc4c3)c3c(N)nccn32)C1 [Linsitinib] (partner 1 µM)
Summary of the method: as §1

[3] = compound: C=CCNC1=C2C[C@@H](C)C[C@H](OC)[C@H](O)[C@@H](C)/C=C(\C)[C@H](OC(N)=O)[C@@H](OC)/C=C\C=C(/C)C(=O)NC(=CC1=O)C2=O [17-AAG] + CS(=O)(=O)CCNCc1ccc(-c2ccc3ncnc(Nc4ccc(OCc5cccc(F)c5)c(Cl)c4)c3c2)o1 [Lapatinib] (partner 2 µM)
Summary of the method: as §1

[4] = compound: C=CCNC1=C2C[C@@H](C)C[C@H](OC)[C@H](O)[C@@H](C)/C=C(\C)[C@H](OC(N)=O)[C@@H](OC)/C=C\C=C(/C)C(=O)NC(=CC1=O)C2=O [17-AAG] + CCNC(=O)c1noc(-c2cc(C(C)C)c(O)cc2O)c1-c1ccc(CN2CCOCC2)cc1 [Luminespib] (partner 0.01 µM)
Summary of the method: as §1

## HARA
[1]; first compound 0.00128 µM
  relative viability: 0.503
[1]; first compound 0.004048 µM
  relative viability: 0.56
[1]; first compound 0.0128 µM
  relative viability: 0.489
[1]; first compound 0.04048 µM
  relative viability: 0.151
[1]; first compound 0.128 µM
  relative viability: 0.0613
[2]; first compound 0.00128 µM
  relative viability: 0.947
[2]; first compound 0.004048 µM
  relative viability: 1.01
[2]; first compound 0.0128 µM
  relative viability: 0.909
[2]; first compound 0.04048 µM
  relative viability: 0.442
[2]; first compound 0.128 µM
  relative viability: 0.754
[3]; first compound 0.00128 µM
  relative viability: 0.694
[3]; first compound 0.004048 µM
  relative viability: 0.811
[3]; first compound 0.0128 µM
  relative viability: 0.692
[3]; first compound 0.04048 µM
  relative viability: 0.831
[3]; first compound 0.128 µM
  relative viability: 0.325
[4]; first compound 0.00128 µM
  relative viability: 0.831
[4]; first compound 0.004048 µM
  relative viability: 0.544
[4]; first compound 0.0128 µM
  relative viability: 0.757
[4]; first compound 0.04048 µM
  relative viability: 0.525
[4]; first compound 0.128 µM
  relative viability: 0.207

## NCI-H2405
[1]; first compound 0.00128 µM
  relative viability: 0.636
[1]; first compound 0.004048 µM
  relative viability: 0.686
[1]; first compound 0.0128 µM
  relative viability: 0.532
[1]; first compound 0.04048 µM
  relative viability: 0.223
[1]; first compound 0.128 µM
  relative viability: 0.181
[2]; first compound 0.00128 µM
  relative viability: 1.02
[2]; first compound 0.004048 µM
  relative viability: 0.737
[2]; first compound 0.0128 µM
  relative viability: 0.262
[2]; first compound 0.04048 µM
  relative viability: 0.219
[2]; first compound 0.128 µM
  relative viability: 0.194
[3]; first compound 0.00128 µM
  relative viability: 1.04
[3]; first compound 0.004048 µM
  relative viability: 0.784
[3]; first compound 0.0128 µM
  relative viability: 0.193
[3]; first compound 0.04048 µM
  relative viability: 0.203
[3]; first compound 0.128 µM
  relative viability: 0.138
[4]; first compound 0.00128 µM
  relative viability: 0.542
[4]; first compound 0.004048 µM
  relative viability: 0.335
[4]; first compound 0.0128 µM
  relative viability: 0.256
[4]; first compound 0.04048 µM
  relative viability: 0.239
[4]; first compound 0.128 µM
  relative viability: 0.184

## NCI-H1975
[1]; first compound 0.00128 µM
  relative viability: 0.654
[1]; first compound 0.004048 µM
  relative viability: 0.446
[1]; first compound 0.0128 µM
  relative viability: 0.133
[1]; first compound 0.04048 µM
  relative viability: 0.147
[1]; first compound 0.128 µM
  relative viability: 0.115
[2]; first compound 0.00128 µM
  relative viability: 1.03
[2]; first compound 0.004048 µM
  relative viability: 0.725
[2]; first compound 0.0128 µM
  relative viability: 0.31
[2]; first compound 0.04048 µM
  relative viability: 0.164
[2]; first compound 0.128 µM
  relative viability: 0.139
[3]; first compound 0.00128 µM
  relative viability: 0.872
[3]; first compound 0.004048 µM
  relative viability: 0.739
[3]; first compound 0.0128 µM
  relative viability: 0.256
[3]; first compound 0.04048 µM
  relative viability: 0.166
[3]; first compound 0.128 µM
  relative viability: 0.11
[4]; first compound 0.00128 µM
  relative viability: 0.198
[4]; first compound 0.004048 µM
  relative viability: 0.175
[4]; first compound 0.0128 µM
  relative viability: 0.14
[4]; first compound 0.04048 µM
  relative viability: 0.176
[4]; first compound 0.128 µM
  relative viability: 0.139

## NCI-H2347
[1]; first compound 0.00128 µM
  relative viability: 0.323
[1]; first compound 0.004048 µM
  relative viability: 0.395
[1]; first compound 0.0128 µM
  relative viability: 0.464
[1]; first compound 0.04048 µM
  relative viability: 0.241
[1]; first compound 0.128 µM
  relative viability: 0.201
[2]; first compound 0.00128 µM
  relative viability: 0.91
[2]; first compound 0.004048 µM
  relative viability: 0.84
[2]; first compound 0.0128 µM
  relative viability: 0.997
[2]; first compound 0.04048 µM
  relative viability: 0.656
[2]; first compound 0.128 µM
  relative viability: 0.37
[3]; first compound 0.00128 µM
  relative viability: 0.938
[3]; first compound 0.004048 µM
  relative viability: 0.96
[3]; first compound 0.0128 µM
  relative viability: 1.04
[3]; first compound 0.04048 µM
  relative viability: 0.647
[3]; first compound 0.128 µM
  relative viability: 0.432
[4]; first compound 0.00128 µM
  relative viability: 0.62
[4]; first compound 0.004048 µM
  relative viability: 0.278
[4]; first compound 0.0128 µM
  relative viability: 0.274
[4]; first compound 0.04048 µM
  relative viability: 0.299
[4]; first compound 0.128 µM
  relative viability: 0.374

## ABC-1
[1]; first compound 0.00128 µM
  relative viability: 0.393
[1]; first compound 0.004048 µM
  relative viability: 0.493
[1]; first compound 0.0128 µM
  relative viability: 0.56
[1]; first compound 0.04048 µM
  relative viability: 0.508
[1]; first compound 0.128 µM
  relative viability: 0.458
[2]; first compound 0.00128 µM
  relative viability: 0.866
[2]; first compound 0.004048 µM
  relative viability: 0.773
[2]; first compound 0.0128 µM
  relative viability: 0.876
[2]; first compound 0.04048 µM
  relative viability: 0.761
[2]; first compound 0.128 µM
  relative viability: 0.816
[3]; first compound 0.00128 µM
  relative viability: 0.968
[3]; first compound 0.004048 µM
  relative viability: 1.03
[3]; first compound 0.0128 µM
  relative viability: 1.06
[3]; first compound 0.04048 µM
  relative viability: 1.54
[3]; first compound 0.128 µM
  relative viability: 1.12
[4]; first compound 0.00128 µM
  relative viability: 0.439
[4]; first compound 0.004048 µM
  relative viability: 0.758
[4]; first compound 0.0128 µM
  relative viability: 0.565
[4]; first compound 0.04048 µM
  relative viability: 0.38
[4]; first compound 0.128 µM
  relative viability: 0.238

## A-427
[1]; first compound 0.00128 µM
  relative viability: 0.484
[1]; first compound 0.004048 µM
  relative viability: 0.502
[1]; first compound 0.0128 µM
  relative viability: 0.502
[1]; first compound 0.04048 µM
  relative viability: 0.343
[1]; first compound 0.128 µM
  relative viability: 0.181
[2]; first compound 0.00128 µM
  relative viability: 1.12
[2]; first compound 0.004048 µM
  relative viability: 1.1
[2]; first compound 0.0128 µM
  relative viability: 1.1
[2]; first compound 0.04048 µM
  relative viability: 1.1
[2]; first compound 0.128 µM
  relative viability: 1.15
[3]; first compound 0.00128 µM
  relative viability: 1.04
[3]; first compound 0.004048 µM
  relative viability: 1.12
[3]; first compound 0.0128 µM
  relative viability: 1.05
[3]; first compound 0.04048 µM
  relative viability: 1.12
[3]; first compound 0.128 µM
  relative viability: 0.607
[4]; first compound 0.00128 µM
  relative viability: 0.994
[4]; first compound 0.004048 µM
  relative viability: 0.902
[4]; first compound 0.0128 µM
  relative viability: 0.66
[4]; first compound 0.04048 µM
  relative viability: 0.379
[4]; first compound 0.128 µM
  relative viability: 0.183

## LCLC-97TM1
[1]; first compound 0.00128 µM
  relative viability: 0.506
[1]; first compound 0.004048 µM
  relative viability: 0.575
[1]; first compound 0.0128 µM
  relative viability: 0.392
[1]; first compound 0.04048 µM
  relative viability: 0.241
[1]; first compound 0.128 µM
  relative viability: 0.18
[2]; first compound 0.00128 µM
  relative viability: 0.192
[2]; first compound 0.004048 µM
  relative viability: 0.198
[2]; first compound 0.0128 µM
  relative viability: 0.211
[2]; first compound 0.04048 µM
  relative viability: 0.269
[2]; first compound 0.128 µM
  relative viability: 0.182
[3]; first compound 0.00128 µM
  relative viability: 0.903
[3]; first compound 0.004048 µM
  relative viability: 1.12
[3]; first compound 0.0128 µM
  relative viability: 0.647
[3]; first compound 0.04048 µM
  relative viability: 0.405
[3]; first compound 0.128 µM
  relative viability: 0.0945
[4]; first compound 0.00128 µM
  relative viability: 0.826
[4]; first compound 0.004048 µM
  relative viability: 0.785
[4]; first compound 0.0128 µM
  relative viability: 0.707
[4]; first compound 0.04048 µM
  relative viability: 0.58
[4]; first compound 0.128 µM
  relative viability: 0.195

## HCC-15
[1]; first compound 0.00128 µM
  relative viability: 0.628
[1]; first compound 0.004048 µM
  relative viability: 0.54
[1]; first compound 0.0128 µM
  relative viability: 0.179
[1]; first compound 0.04048 µM
  relative viability: 0.107
[1]; first compound 0.128 µM
  relative viability: 0.106
[2]; first compound 0.00128 µM
  relative viability: 0.879
[2]; first compound 0.004048 µM
  relative viability: 0.894
[2]; first compound 0.0128 µM
  relative viability: 0.613
[2]; first compound 0.04048 µM
  relative viability: 0.387
[2]; first compound 0.128 µM
  relative viability: 0.213
[3]; first compound 0.00128 µM
  relative viability: 0.795
[3]; first compound 0.004048 µM
  relative viability: 0.625
[3]; first compound 0.0128 µM
  relative viability: 0.351
[3]; first compound 0.04048 µM
  relative viability: 0.225
[3]; first compound 0.128 µM
  relative viability: 0.106
[4]; first compound 0.00128 µM
  relative viability: 0.301
[4]; first compound 0.004048 µM
  relative viability: 0.23
[4]; first compound 0.0128 µM
  relative viability: 0.131
[4]; first compound 0.04048 µM
  relative viability: 0.128
[4]; first compound 0.128 µM
  relative viability: 0.102

## NCI-H650
[1]; first compound 0.00128 µM
  relative viability: 0.502
[1]; first compound 0.004048 µM
  relative viability: 0.602
[1]; first compound 0.0128 µM
  relative viability: 0.494
[1]; first compound 0.04048 µM
  relative viability: 0.426
[1]; first compound 0.128 µM
  relative viability: 0.258
[2]; first compound 0.00128 µM
  relative viability: 0.865
[2]; first compound 0.004048 µM
  relative viability: 0.908
[2]; first compound 0.0128 µM
  relative viability: 0.788
[2]; first compound 0.04048 µM
  relative viability: 0.314
[2]; first compound 0.128 µM
  relative viability: 0.177
[3]; first compound 0.00128 µM
  relative viability: 0.982
[3]; first compound 0.004048 µM
  relative viability: 1.05
[3]; first compound 0.0128 µM
  relative viability: 0.62
[3]; first compound 0.04048 µM
  relative viability: 0.333
[3]; first compound 0.128 µM
  relative viability: 0.215
[4]; first compound 0.00128 µM
  relative viability: 0.884
[4]; first compound 0.004048 µM
  relative viability: 0.601
[4]; first compound 0.0128 µM
  relative viability: 0.607
[4]; first compound 0.04048 µM
  relative viability: 0.386
[4]; first compound 0.128 µM
  relative viability: 0.171
